Data taken from ChEMBL document CHEMBL5346881 (Eur J Med Chem, 2023).

Legend:
[1] = system: SK-OV-3; assay: Growth inhibition of human SK-OV-3 cells incubated for 48 hrs by MTT assay; assay type: functional
[2] = system: MCF7; assay: Antiproliferative activity against human MCF7 cells assessed inhibition of cell growth incubated for 48 hrs by MTT assay; assay type: functional, cell-based; conditions: MCF7, 48 h
[3] = system: MRC5; assay: Growth inhibition of human MRC5 cells incubated for 48 hrs by MTT assay; assay type: functional
[4] = system: MCF7; assay: Growth inhibition of human MCF7 cells incubated for 48 hrs by MTT assay; assay type: functional
[5] = Growth inhibition of human UWB1289 cells harboring BRCA1 incubated for 48 hrs by MTT assay; assay type: functional
[6] = Antiproliferative activity against human UWB1289 cells harboring BRCA1 assessed inhibition of cell growth incubated for 48 hrs by MTT assay; assay type: functional, cell-based; conditions: UWB1289, 48 h
[7] = system: MRC5; assay: Antiproliferative activity against human MRC5 cells assessed inhibition of cell growth incubated for 48 hrs by MTT assay; assay type: functional, cell-based; conditions: MRC5, 48 h
[8] = system: SK-OV-3; assay: Antiproliferative activity against human SK-OV-3 cells assessed inhibition of cell growth incubated for 48 hrs by MTT assay; assay type: functional, cell-based; conditions: SK-OV-3, 48 h
[9] = system: PC-3; assay: Antiproliferative activity against human PC-3 cells assessed inhibition of cell growth incubated for 48 hrs by MTT assay; assay type: functional, cell-based; conditions: PC-3, 48 h
[10] = system: PC-3; assay: Growth inhibition of human PC-3 cells incubated for 48 hrs by MTT assay; assay type: functional
[11] = Acute toxicity in ip dosed CB17 SCID mouse assessed as lethal dose; assay type: organism-based; parameters: LD20: unit not given here; conditions: in vivo
[12] = system: LS174T; assay: Antiproliferative activity against human LS174T cells assessed inhibition of cell growth incubated for 48 hrs by MTT assay; assay type: functional, cell-based
[13] = system: HuP-T3; assay: Antiproliferative activity against human HuP-T3 cells assessed inhibition of cell growth incubated for 48 hrs by MTT assay; assay type: functional, cell-based; conditions: HuP-T3, 48 h
[14] = system: HeLa; assay: Antiproliferative activity against human HeLa cells assessed inhibition of cell growth incubated for 48 hrs by MTT assay; assay type: functional, cell-based
[15] = system: MDA-MB-231; assay: Antiproliferative activity against human MDA-MB-231 cells assessed inhibition of cell growth incubated for 48 hrs by MTT assay; assay type: functional, cell-based; conditions: MDA-MB-231, 48 h
[16] = system: HT-29; assay: Antiproliferative activity against human HT-29 cells assessed inhibition of cell growth incubated for 48 hrs by MTT assay; assay type: functional, cell-based; conditions: HT-29, 48 h
[17] = system: LoVo; assay: Antiproliferative activity against human LoVo cells assessed inhibition of cell growth incubated for 48 hrs by MTT assay; assay type: functional, cell-based
[18] = system: P388; assay: Antitumor activity against mouse P388 cells xenografted in CB17 SCID mouse assessed as T/C ratio at 140 uM, ip administered as single dose measured after 17 days; assay type: functional; conditions: time 17 day
[19] = system: SK-OV-3; assay: Antitumor activity against human SK-OV-3 cells xenografted in CB17 SCID mouse assessed as tumor inhibition at 140 uM, ip administered as single dose measured after 17 days; assay type: functional; conditions: SK-OV-3, 408 h, time 17 day, read-out: TGI
[20] = system: MDA-MB-453; assay: Antiproliferative activity against human MDA-MB-453 cells assessed inhibition of cell growth incubated for 48 hrs by MTT assay; assay type: functional, cell-based; conditions: MDA-MB-453, 48 h
[21] = system: SK-OV-3; assay: Antitumor activity against human SK-OV-3 cells xenografted in CB17 SCID mouse assessed as reduction in tumor volume at 36 mg/kg, ip administered as single dose measured after 11 days (reference value: 790 +/- 65.6 mm3); assay type: functional; conditions: time 11 day
[22] = system: SK-OV-3; assay: Antitumor activity against human SK-OV-3 cells xenografted in CB17 SCID mouse assessed as tumor inhibition at 36 mg/kg, ip administered as single dose measured after 11 days; assay type: functional; conditions: SK-OV-3, 264 h, time 11 day, read-out: TGI
[23] = system: PC-3; assay: Antitumor activity against human PC-3 cells xenografted in CB17 SCID mouse assessed as reduction in tumor volume at 36 mg/kg, ip administered as single dose measured after 21 days (reference value: 683 +/- 47.3 mm3); assay type: functional; conditions: time 21 day
[24] = system: PC-3; assay: Antitumor activity against human PC-3 cells xenografted in CB17 SCID mouse assessed as tumor inhibition at 36 mg/kg, ip administered as single dose measured after 21 days; assay type: functional; conditions: PC-3, 504 h, time 21 day, read-out: TGI

Structure (SMILES): CC(=O)O[C@@H](COc1ccc(N(CCCl)CCCl)cc1)C(=O)O
- GI50 [1]: > 100 µM
- TGI [1]: > 100 µM
- IC50 [2]: > 100 µM
- GI50 [3]: 50 µM
- TGI [3]: > 100 µM
- GI50 [4]: 80 µM
- TGI [4]: > 100 µM
- GI50 [5]: > 100 µM
- TGI [5]: > 100 µM
- IC50 [6]: > 100 µM
- IC50 [7]: > 100 µM
- IC50 [8]: > 100 µM
- IC50 [9]: > 100 µM
- GI50 [10]: > 100 µM
- TGI [10]: > 100 µM

Structure (SMILES): C[C@]12CC(=O)[C@H]3[C@@H](CCC4=CC(=O)NCC[C@@]43C)[C@@H]1CC[C@@H]2OC(=O)[C@@H](N)COc1ccc(N(CCCl)CCCl)cc1
- LD20 ([11]; ip): 10
- LD50 ([11]; ip): 14
- IC50 [12]: 4 µM
- IC50 [13]: 4 µM
- IC50 [14]: 4 µM
- IC50 [15]: 4 µM
- IC50 [6]: 4 µM
- IC50 [16]: 4 µM
- IC50 [17]: 4 µM
- T/C [18]: 109.9
- inhibition in vivo at 140 µM [19]: 110%
- IC50 [8]: 4 µM
- IC50 [20]: 4 µM

Structure (SMILES): C[C@]12CC[C@H]3[C@@H](CCC4=CC(=O)NCC[C@@]43C)[C@@H]1CC[C@@H]2OC(=O)[C@@H](N)COc1ccc(N(CCCl)CCCl)cc1
- LD20 ([11]; ip): 12.5
- LD50 ([11]; ip): 21
- IC50 [12]: 1 µM
- IC50 [13]: 1 µM
- IC50 [14]: 1 µM
- IC50 [15]: 1 µM
- IC50 [6]: 1 µM
- IC50 [16]: 1 µM
- IC50 [17]: 1 µM
- T/C [18]: 410.3
- IC50 [8]: 1 µM
- IC50 [20]: 1 µM

Structure (SMILES): C[C@]12CC(=O)[C@H]3[C@@H](CCC4=CC(=O)NCC[C@@]43C)[C@@H]1CC[C@@H]2OC(=O)CCOc1ccc(N(CCCl)CCCl)cc1
- LD20 ([11]; ip): 140
- LD50 ([11]; ip): 110
- IC50 [12]: 65 µM
- IC50 [13]: 65 µM
- IC50 [14]: 65 µM
- IC50 [15]: 65 µM
- IC50 [6]: 65 µM
- IC50 [16]: 65 µM
- IC50 [17]: 65 µM
- T/C [18]: 356
- IC50 [8]: 65 µM
- IC50 [20]: 65 µM

Structure (SMILES): CC(=O)O[C@@H](COc1ccc(N(CCCl)CCCl)cc1)C(=O)O[C@H]1CC[C@H]2[C@@H]3CCC4=CC(=O)NCC[C@]4(C)[C@H]3CC[C@]12C
- GI50 [1]: 0.8 µM
- TGI [1]: 2.2 µM
- IC50 [2]: 4.3 µM
- GI50 [3]: 3.9 µM
- TGI [3]: 15.3 µM
- GI50 [4]: 1.5 µM
- TGI [4]: 3.4 µM
- GI50 [5]: 0.7 µM
- TGI [5]: 2.2 µM
- IC50 [6]: 6.3 µM
- IC50 [7]: 21.5 µM
- IC50 [8]: 3.9 µM
- IC50 [9]: 9 µM
- GI50 [10]: 1.7 µM
- TGI [10]: 3.9 µM

Structure (SMILES): C[C@]12CC[C@H]3[C@@H](CCC4=CC(=O)NCC[C@@]43C)[C@@H]1CC[C@@H]2OC(=O)[C@@H](O)COc1ccc(N(CCCl)CCCl)cc1
- LD50 ([11]; CB17 SCID, read-out: LD50): 28 mg/kg
- LD10 ([11]; ip): 36 mg/kg
- GI50 [1]: 1 µM
- TGI [1]: 3.5 µM
- IC50 [2]: 8 µM
- GI50 [3]: 3 µM
- TGI [3]: 10 µM
- GI50 [4]: 1.5 µM
- TGI [4]: 3.8 µM
- GI50 [5]: 1.2 µM
- TGI [5]: 4 µM
- IC50 [6]: 51 µM
- Activity [21]: 192 mm3
- inhibition in vivo at 36 mg/kg [22]: 95%
- IC50 [7]: 22.5 µM
- IC50 [8]: 9 µM
- IC50 [9]: 11 µM
- Activity [23]: 181 mm3
- inhibition in vivo at 36 mg/kg [24]: 85.2%
- GI50 [10]: 2 µM
- TGI [10]: 4 µM

Structure (SMILES): C[C@]12CC(=O)[C@H]3[C@@H](CCC4=CC(=O)NCC[C@@]43C)[C@@H]1CC[C@@H]2OC(=O)[C@@H](O)COc1ccc(N(CCCl)CCCl)cc1
- GI50 [1]: 3.4 µM
- TGI [1]: 12 µM
- IC50 [2]: 21 µM
- GI50 [3]: 12 µM
- TGI [3]: 44 µM
- GI50 [4]: 6 µM
- TGI [4]: 11 µM
- GI50 [5]: 5 µM
- TGI [5]: 13.2 µM
- IC50 [6]: 56 µM
- IC50 [7]: 68 µM
- IC50 [8]: 36 µM
- IC50 [9]: 28 µM
- GI50 [10]: 4 µM
- TGI [10]: 9 µM

Structure (SMILES): CC(=O)O[C@@H](COc1ccc(N(CCCl)CCCl)cc1)C(=O)O[C@H]1CC[C@H]2[C@@H]3CCC4=CC(=O)NCC[C@]4(C)[C@H]3C(=O)C[C@]12C
- GI50 [1]: 3.8 µM
- TGI [1]: 9 µM
- IC50 [2]: 12 µM
- GI50 [3]: 27 µM
- TGI [3]: 38 µM
- GI50 [4]: 2.2 µM
- TGI [4]: 7 µM
- GI50 [5]: 3 µM
- TGI [5]: 7 µM
- IC50 [6]: 12 µM
- IC50 [7]: 52 µM
- IC50 [8]: 33 µM
- IC50 [9]: 16 µM
- GI50 [10]: 8.2 µM
- TGI [10]: 9 µM

Structure (SMILES): CC(=O)O[C@@H](COc1ccc(N(CCCl)CCCl)cc1)C(=O)Oc1ccc2c(c1)CC[C@@H]1[C@@H]2CC[C@]2(C)NC(=O)CC[C@@H]12
- GI50 [1]: 4 µM
- TGI [1]: 9 µM
- IC50 [2]: 10 µM
- GI50 [3]: 6.5 µM
- TGI [3]: 10 µM
- GI50 [4]: 2 µM
- TGI [4]: 5.5 µM
- GI50 [5]: 3 µM
- TGI [5]: 8.8 µM
- IC50 [6]: 11.9 µM
- IC50 [7]: 19 µM
- IC50 [8]: 22 µM
- IC50 [9]: 15 µM
- GI50 [10]: 4.5 µM
- TGI [10]: 8.9 µM
